Values after ≈ are worked out from the molar mass of the structure shown.

Common to all, as to assay type: functional
In test [1] the test system is Aspergillus niger. Put plainly: Antifungal activity against Aspergillus niger assessed as inhibition zone at 50 ug/ml by disk diffusion method. The following applies: read-out: IZ.
Test [2] concerns Candida tropicalis. The test can be described thus: Antifungal activity against Candida tropicalis by broth microdilution method.
The test system of test [3] is Nakaseomyces glabratus. The test can be described thus: Antifungal activity against Candida glabrata ATCC 36583 by broth microdilution method.
Test [4] deals with Candida albicans. The test can be described thus: Antifungal activity against Candida albicans NCCS 3471 assessed as inhibition zone at 10 ug/ml incubated for 3 to 4 days by disk diffusion method. The following applies: read-out: IZ.
Test [5] relates to Aspergillus fumigatus. The test can be described thus: Antifungal activity against Aspergillus fumigatus NCIM 902 assessed as inhibition zone at 10 ug/ml incubated for 3 to 4 days by disk diffusion method. As to conditions: read-out: IZ.
Test [6] relates to Candida albicans. The test can be described thus: Antifungal activity against Candida albicans NCCS 3471 assessed as inhibition zone at 50 ug/ml by disk diffusion method. As to conditions: read-out: IZ.
For test [7], the system named is Candida albicans. Put plainly: Antifungal activity against Candida albicans.
In the next test the test system is Ceratobasidium cereale. Put plainly: Antifungal activity against Rhizoctonia cerealis assessed as inhibition of growth at 50 ug/ml. The following applies: read-out: GI.
The subject of a further test is Fusarium graminearum. Put plainly: Antifungal activity against Gibberella zeae assessed as inhibition of growth at 50 ug/ml. The following applies: read-out: GI.
Another test deals with Sclerotinia sclerotiorum. The test can be described thus: Antifungal activity against Sclerotinia sclerotiorum assessed as inhibition of growth at 50 ug/ml. The following applies: read-out: GI.
The nature of test [8]: Antifungal activity against Pellicularia sasakii assessed as inhibition of growth at 50 ug/ml. As to conditions: read-out: GI.
In another test the test system is Alternaria solani. The test can be described thus: Antifungal activity against Alternaria solani assessed as inhibition of growth at 50 ug/ml. The following applies: read-out: GI.
In a further test the test system is Phytophthora infestans. Put plainly: Antifungal activity against Phytophthora infestans assessed as inhibition of growth at 50 ug/ml. As to conditions: read-out: GI.
Another test concerns Mycosphaerella arachidis. Put plainly: Antifungal activity against Cercospora arachidicola assessed as inhibition of growth at 50 ug/ml. The following applies: read-out: GI.
The next test deals with Botrytis cinerea. The test can be described thus: Antifungal activity against Botrytis cinerea assessed as inhibition of growth at 50 ug/ml. As to conditions: read-out: GI.
In test [9] the test system is Botryosphaeria berengeriana. Put plainly: Antifungal activity against Physalospora pyricola assessed as inhibition of growth at 50 ug/ml. As to conditions: read-out: GI.
In test [10] the test system is Staphylococcus aureus. The test can be described thus: Potency index, ratio for MIC of methicillin to MIC of compound for […] incubated for 24 hrs by broth microdilution method.
For test [11], the system named is Candida albicans. The test can be described thus: Antifungal activity against Candida albicans assessed as reduction in fungal cell growth incubated for 24 hrs by broth microdilution method.
For test [12], the system named is Nakaseomyces glabratus. The test can be described thus: Antifungal activity against Candida glabrata assessed as reduction in fungal cell growth incubated for 24 hrs by broth microdilution method.
Test [13] relates to Aspergillus flavus. The test can be described thus: Antifungal activity against Aspergillus flavus assessed as reduction in fungal cell growth incubated for 24 and 72 hrs by cup plate method.
For test [14], the system named is Candida albicans. The test can be described thus: Antifungal activity against Candida albicans assessed as inhibition zone at 100 ug/ml. The following applies: read-out: IZ.
Test [15] relates to Candida tropicalis. The test can be described thus: Antifungal activity against Candida tropicalis assessed as reduction in fungal cell growth incubated for 48 hrs by broth microdilution method.
The test system of test [16] is Aspergillus niger. Put plainly: Antifungal activity against Aspergillus niger assessed as inhibition zone at 100 ug/ml. As to conditions: read-out: IZ.
Test [17] deals with Candida albicans. Put plainly: Antifungal activity against Candida albicans assessed as inhibition zone at 125 ug/ml by disk diffusion method. As to conditions: read-out: IZ.
Test [18] deals with Candida albicans. Put plainly: Antifungal activity against Candida albicans assessed as reduction in fungal cell growth incubated for 48 hrs by broth microdilution susceptibility method.
The subject of test [19] is Aspergillus niger. Put plainly: Antifungal activity against Aspergillus niger assessed as inhibition zone at 20 ug/ml by disk diffusion method. As to conditions: read-out: IZ.
Test [20] deals with Aspergillus niger. Put plainly: Antifungal activity against Aspergillus niger assessed as reduction in fungal cell growth incubated for 48 hrs by broth microdilution susceptibility method.
Test [21] concerns Aspergillus fumigatus. The test can be described thus: Antifungal activity against Aspergillus fumigatus assessed as inhibition zone at 20 ug/ml by disk diffusion method. The following applies: read-out: IZ.
Test [22] relates to Pichia kudriavzevii. The test can be described thus: Antifungal activity against Candida krusei assessed as reduction in fungal cell growth incubated for 48 hrs by broth microdilution method.
In test [23] the test system is Pichia kudriavzevii. The test can be described thus: Antifungal activity against Candida krusei assessed as reduction in fungal cell growth incubated for 24 hrs by broth microdilution method.
Test [24] has as its system Candida albicans. The test can be described thus: Antifungal activity against Candida albicans TA.
Test [25] concerns Candida tropicalis. Put plainly: Antifungal activity against Candida tropicalis assessed as reduction in fungal cell growth incubated for 24 hrs by broth microdilution method.
Test [26] concerns Candida albicans. Put plainly: Antifungal activity against Candida albicans assessed as inhibition zone at 20 ug/ml by disk diffusion method. As to conditions: read-out: IZ.
For test [27], the system named is Candida albicans. Put plainly: Antifungal activity against Candida albicans V-01-191A-261 assessed as reduction in fungal cell growth incubated for 48 hrs by broth microdilution method. The following applies: V-01-191A-261, 48 h.
For the next test, the system named is Candida parapsilosis. Put plainly: Antifungal activity against Candida parapsilosis ATCC 22019 assessed as reduction in fungal cell growth incubated for 48 hrs by broth microdilution method. The following applies: Lodderomyces parapsilosis, ATCC 22019, 48 h.
A further test concerns Cryptococcus neoformans. The test can be described thus: Antifungal activity against Cryptococcus neoformans LA314 assessed as reduction in fungal cell growth incubated for 48 hrs by broth microdilution method. The following applies: LA314, 48 h.
The test system of test [28] is Candida albicans. The test can be described thus: Antifungal activity against Candida albicans assessed as reduction in fungal cell growth incubated for 24 and 72 hrs by cup plate method.
Test [29] relates to Candida albicans. Put plainly: In vivo antifungal activity against Candida albicans TA infected in CDF-1 mouse dosed orally assessed as survival of mouse. As to conditions: po.
Test [30] relates to Nakaseomyces glabratus. The test can be described thus: Antifungal activity against Candida glabrata assessed as reduction in fungal cell growth incubated for 48 hrs by broth microdilution method.
The subject of test [31] is Aspergillus fumigatus. Put plainly: Antifungal activity against Aspergillus fumigatus assessed as reduction in fungal cell growth incubated for 48 hrs by broth microdilution method.
The test system of test [32] is Aspergillus niger. Put plainly: Antifungal activity against Aspergillus niger assessed as reduction in fungal cell growth incubated for 48 hrs by broth microdilution method.
The test system of test [33] is Aspergillus niger. Put plainly: Antifungal activity against Aspergillus niger assessed as reduction in fungal cell growth incubated for 72 hrs by broth microdilution method.
The test system of test [34] is Aspergillus flavus. Put plainly: Antifungal activity against Aspergillus flavus assessed as inhibition zone at 20 ug/ml by disk diffusion method. As to conditions: read-out: IZ.
In test [35] the test system is Staphylococcus aureus. Put plainly: Antifungal activity against methicillin-resistant Staphylococcus aureus after 24 hrs by broth microdilution assay.
For test [36], the system named is Aspergillus niger. The test can be described thus: Potency index, ratio for MIC of fluconazole to MIC of compound for antifungal activity against Aspergillus niger.
Test [37] concerns Aspergillus fumigatus. The test can be described thus: Potency index, ratio for MIC of fluconazole to MIC of compound for antifungal activity against Aspergillus fumigatus.
The test system of the next test is Saccharomyces cerevisiae. The test can be described thus: Potency index, ratio for MIC of fluconazole to MIC of compound for antifungal activity against Saccharomyces cerevisiae.

As for `CC(=O)N1CCN(c2ccc(OCC3COC(Cn4ccnc4)(c4ccc(Cl)cc4Cl)O3)cc2)CC1` (stereo not drawn) [KETOCONAZOLE], the zone of inhibition at 50 µg/mL was found to be 23 mm in the test on Aspergillus niger [1] and 26 mm in the test on Candida albicans [6]. In addition, the MIC with Candida tropicalis [2], against Nakaseomyces glabratus [3] and in the test with Candida albicans [7] was 25 to 50 µg/mL (≈ 47 to 94.1 µM) in each case. Also, the figures for the zone of inhibition at 10 µg/mL with Candida albicans [4] and in the test with Aspergillus fumigatus [5] were 24 mm and 23 mm, respectively.
Consider `Cc1snnc1C(Nc1ccc([N+](=O)[O-])cc1)c1nnnn1C1CCCCC1` (stereo not drawn), for which the inhibition of growth at 50 µg/mL (in the test on Ceratobasidium cereale; in the test on Fusarium graminearum; with Sclerotinia sclerotiorum; in test [8]; with Alternaria solani; in the test with Phytophthora infestans) was 20 to 65.4% each time. Moreover, the inhibition of growth at 50 µg/mL (with Mycosphaerella arachidis; in the test with Botrytis cinerea; in test [9]) was 20 to 65.4% in each case.
Take `FC(F)(F)c1cc(-c2ccc(I)cc2)nc2nnnn12`: the Ratio with Staphylococcus aureus [10] is on record as above 64. Further, the MIC in the test on Candida albicans [11] amounted to 62.5 µg/mL (≈ 160 µM).
Regarding `OC(Cn1cncn1)(Cn1cncn1)c1ccc(F)cc1F` [FLUCONAZOLE], the MIC was 1 to 4 µg/mL (≈ 3.27 to 13.1 µM) with Nakaseomyces glabratus [12]; 25 µg/mL (≈ 81.6 µM) with Aspergillus flavus [13]; 2 to 8 µg/mL (≈ 6.53 to 26.1 µM) in the test with Candida tropicalis [15]; 6.25 µg/mL (≈ 20.4 µM) with Candida albicans [18]; 6.25 µg/mL (≈ 20.4 µM) in the test on Aspergillus niger [20]; 1 to 4 µg/mL (≈ 3.27 to 13.1 µM) with Candida albicans [11]. For the same compound, the MIC in the test with Pichia kudriavzevii [22] was 2 to 8 µg/mL (≈ 6.53 to 26.1 µM); with Pichia kudriavzevii [23] it was 1 to 4 µg/mL (≈ 3.27 to 13.1 µM); against Candida albicans [24], 100 µg/mL (≈ 327 µM); in the test on Candida tropicalis [25], 1 to 4 µg/mL (≈ 3.27 to 13.1 µM); with Candida albicans [27], 2 to 8 µg/mL (≈ 6.53 to 26.1 µM); with Candida parapsilosis it was 2 to 8 µg/mL (≈ 6.53 to 26.1 µM). For the same compound, the MIC in the test on Cryptococcus neoformans is 2 to 8 µg/mL (≈ 6.53 to 26.1 µM); with Candida albicans [28], 25 µg/mL (≈ 81.6 µM); in the test with Nakaseomyces glabratus [30], 2 to 8 µg/mL (≈ 6.53 to 26.1 µM); in the test on Aspergillus fumigatus [31], 2.5 µg/mL (≈ 8.16 µM); with Aspergillus niger [32] it was 0.625 to 6.25 µg/mL (≈ 2.04 to 20.4 µM); in the test with Aspergillus niger [33], 2 to 8 µg/mL (≈ 6.53 to 26.1 µM). Besides, the zone of inhibition at 100 µg/mL in the test with Candida albicans [14] and in the test on Aspergillus niger [16] was 22 to 25 mm throughout. In addition, the zone of inhibition at 125 µg/mL in the test on Candida albicans [17] is 14 mm. Further, the zone of inhibition at 20 µg/mL in the test with Aspergillus niger [19], in the test with Aspergillus fumigatus [21], in the test with Candida albicans [26] and with Aspergillus flavus [34] was 19 to 22 mm in each case. The ED50 with Candida albicans [29] fell in the range of 0.29 to 0.35 mg/kg.
Consider `COc1cccc(OC)c1C(=O)N[C@@H]1C(=O)N2[C@@H]1SC(C)(C)[C@@H]2C(=O)O` [METHICILLIN], for which the MIC in the test with Staphylococcus aureus [35] was above 250 µg/mL.
As for `Nc1nc(-c2ccc(-n3cnnn3)cc2)cc(-c2ccc(OC(F)F)c(O)c2)n1`, the Ratio result in the test on Aspergillus niger [36], in the test with Aspergillus fumigatus [37] and with Saccharomyces cerevisiae was “>=2” each time.
